Results from ChEMBL document CHEMBL1138392, “Phenylalanyl-aminocyclophosphamides as model prodrugs for proteolytic activation: synthesis, stability, and stereochemical requirements for enzymatic cleavage” (Bioorg Med Chem Lett, 2007).

What was measured:
[1] = Stability assessed as hydrolysis half life in presence of alpha-chymotrypsin; format: ADME
[2] = Stability in phosphate buffer assessed as hydrolysis at pH 7.4 after 3 days; format: physicochemical; conditions: read-out: Activity
[3] = Stability in presence of alpha-chymotrypsin at 100 mM after 12 hrs; format: ADME; conditions: 100000 µM

| SMILES | t1/2 [1] | degraded at 72 h [2] | Activity [3] | half-life ([1]; alpha-chymotrypsin) |
| --- | --- | --- | --- | --- |
| O=C(N[C@@H](Cc1ccccc1)C(=O)N[C@H]1CCOP(=O)(N(CCCl)CCCl)N1)OCc1ccccc1 (stereo in doubt; trans) | 8.9 h | – | – | – |
| N[C@@H](Cc1ccccc1)C(=O)N[C@H]1CCOP(=O)(N(CCCl)CCCl)N1 (some centres undefined) | – | < 10% | Not Active | – |
| O=C(N[C@@H](Cc1ccccc1)C(=O)N[C@@H]1CCOP(=O)(N(CCCl)CCCl)N1)OCc1ccccc1 (some centres undefined) | – | – | Active | > 12 h |
| O=C(N[C@@H](Cc1ccccc1)C(=O)N[C@H]1CCOP(=O)(N(CCCl)CCCl)N1)OCc1ccccc1 (stereo in doubt; cis) | 0.333 h | – | Active | – |
| N[C@@H](Cc1ccccc1)C(=O)N[C@@H]1CCOP(=O)(N(CCCl)CCCl)N1 (some centres undefined) | – | < 10% | Not Active | – |
